Data published in patent US20260034119A1, “5-METHOXY-N,N-[…][…], THEIR […], AND METHODS FOR TREATMENT OF NEUROLOGICAL, […], AND SUBSTANCE USE DISORDERS” (priority 2023, published 2026).
“And” between values parts separate entries of the source, which are not always exact repeats. Equal entries are not always repeated. Where two headings read alike, the source gives them in different places.

Columns and labels:
[1] = target: T1, 5-HT2A (Homo sapiens, UniProt P28223); test: cell-based
[2] = target: T2, human 5-HT1A (Homo sapiens, UniProt P08908); test: cell-based
T2 sequence (P08908 1-422): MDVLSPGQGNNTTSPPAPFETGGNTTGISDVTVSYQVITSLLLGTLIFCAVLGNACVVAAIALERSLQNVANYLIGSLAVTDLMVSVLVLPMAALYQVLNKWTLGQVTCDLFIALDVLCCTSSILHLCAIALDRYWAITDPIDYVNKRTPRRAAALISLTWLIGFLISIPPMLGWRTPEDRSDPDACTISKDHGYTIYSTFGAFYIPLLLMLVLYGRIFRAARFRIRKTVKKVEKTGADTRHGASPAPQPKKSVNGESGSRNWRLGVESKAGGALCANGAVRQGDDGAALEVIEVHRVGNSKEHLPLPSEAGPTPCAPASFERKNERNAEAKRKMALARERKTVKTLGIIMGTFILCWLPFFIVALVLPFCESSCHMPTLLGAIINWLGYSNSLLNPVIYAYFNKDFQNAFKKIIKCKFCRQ

[3] = target: T3, 5-HT1A (Homo sapiens, UniProt P08908); test: cell-based
[4] = target: T2, human 5-HT1A; test: 5-HT1A-mediated cAMP reduction assay (GloSensor, HEK293-T)
[5] = target: T3, 5-HT1A; test: BRET signaling assay: 5-HT1A-mediated activation of heterotrimeric Gi1 (TRUPATH, HEK293-T); conditions: for Efficacy as %5HT 5-HT1A BRET Gi1: Table 6, commercial ligands
[6] = target: T1, 5-HT2A
[7] = EC50 (nM) Mean BRET Gq-2A, Table 2
[8] = EC50 (nM) 5-HT1A cAMP, Table 6, commercial ligands

T1 sequence (P28223 whole entry): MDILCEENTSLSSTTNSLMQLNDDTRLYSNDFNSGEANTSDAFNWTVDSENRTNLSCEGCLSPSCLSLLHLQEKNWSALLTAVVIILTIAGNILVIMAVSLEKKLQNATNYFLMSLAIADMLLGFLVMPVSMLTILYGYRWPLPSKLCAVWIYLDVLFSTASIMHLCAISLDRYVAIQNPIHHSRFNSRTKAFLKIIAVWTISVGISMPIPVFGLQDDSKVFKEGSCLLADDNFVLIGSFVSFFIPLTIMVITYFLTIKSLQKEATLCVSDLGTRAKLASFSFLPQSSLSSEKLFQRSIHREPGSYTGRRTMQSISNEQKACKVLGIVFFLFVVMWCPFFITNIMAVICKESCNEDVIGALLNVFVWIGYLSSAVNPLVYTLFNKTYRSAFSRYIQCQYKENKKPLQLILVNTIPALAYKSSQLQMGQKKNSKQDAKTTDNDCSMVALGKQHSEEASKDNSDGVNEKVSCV

SMILES	EC50 [1]	EC50 [2]	EC50 [3]	also measured
CCCN(CCC)CCc1c[nH]c2ccc(OC)cc12 [Compound 13]	20.2 nM	3.57 nM and 4.37 nM	15.4 nM	
COc1ccc2[nH]cc(CCN3CC=CC3)c2c1F [Compound 13]				EC50 [1, 7]: 120 nM; EC50 ([4]; pEC50 Gio(cAMP)-1A, Table 2): 0.00229 nM; EC50 ([5]; pEC50 BRET Gi1-1A, Table 2): 0.219 nM
COc1ccc2[nH]cc(CCN(C)C(C)C)c2c1 [Compound 14]	17.3 nM	51.8 nM	112 nM	
CCCN(CCc1c[nH]c2ccc(OC)cc12)C(C)C [Compound 15]	51.2 nM	26.7 nM	101 nM and 100 nM	
C=CCN(C)CCc1c[nH]c2ccc(OC)cc12 [Compound 16]	24.5 nM and 25.7 nM	9.64 nM	42.7 nM	
CN(C)CCc1c[nH]c2ccc(O)c(F)c12 [Compound 16]				EC50 [1, 7]: 7.46 nM; EC50 ([4]; pEC50 Gio(cAMP)-1A, Table 2): 0.251 nM; EC50 ([5]; EC50 (nM) Mean BRET Gi1-1A, Table 2): 1.13 nM
COc1ccc2[nH]cc(CCN3CCCC3)c2c1 [Compound 18]	81.5 nM	0.16 nM and 0.166 nM	2.13 nM	
COc1ccc2[nH]cc(CCN3CC=CC3)c2c1 [Compound 21, 3-(2-(2,5-dihydro-1H-pyrrol-1-yl)ethyl)-5-methoxy-1H-indole]	9.91 nM		0.257 nM	EC50 ([5]; Gi BRET EC50): 0.3 nM; further increase in potency at 5-HT1A ([5]; relative to 5-MeO-PyrT): ~8 fold
CCN(CC)CCc1c[nH]c2ccc(OC)c(F)c12 [Compound 27, N,N-diethyl-2-(4-fluoro-5-methoxy-1H-indol-3-yl)ethan-1-amine]	673 nM	0.21 nM and 0.204 nM	3.18 nM	
COc1ccc2[nH]cc(CCN(C)C(C)C)c2c1F [Compound 31, N-(2-(4-fluoro-5-methoxy-1H-indol-3-yl)ethyl)-N-methylpropan-2-amine]	152 nM	2.98 nM	14.2 nM	
CCCN(CCc1c[nH]c2ccc(OC)c(F)c12)C(C)C [Compound 32, N-(2-(4-fluoro-5-methoxy-1H-indol-3-yl)ethyl)-N-isopropylpropan-1-amine]	249 nM	5.96 nM and 5.89 nM	16.8 nM and 16.6 nM	
COc1ccc2[nH]cc(CCN(C(C)C)C(C)C)c2c1F [Compound 33, N-(2-(4-fluoro-5-methoxy-1H-indol-3-yl)ethyl)-N-isopropylpropan-2-amine]	338 nM	6 nM	35.8 nM	
COc1ccc2[nH]cc(CCN3CCCC3)c2c1F [Compound 35, 4-fluoro-5-methoxy-3-(2-(pyrrolidin-1-yl)ethyl)-1H-indole]	300 nM	0.03 nM and 0.0282 nM	0.372 nM	
COc1ccc2[nH]cc(CCN3CCCCC3)c2c1F [Compound 36, 4-fluoro-5-methoxy-3-(2-(piperidin-1-yl)ethyl)-1H-indole]		2.42 nM	8.97 nM	
CN(C)CCc1c[nH]c2ccc(O)cc12 [Compound 49, Bufotenine, reference compound]			9.29 nM	
CN(C)CCc1c[nH]c2cccc(O)c12 [Compound 52, Psilocin, reference compound]		512 nM	1080 nM and 1070 nM	
CN(C)CCc1c[nH]c2ccccc12 [DMT]				EC50 ([6]; Gq BRET, 5-HT2A WT): 94.4 nM; pEC50 ([6]; Gq BRET, 5-HT2A WT): (7.03,
COc1cc(CCN)cc(OC)c1OC [Mescaline, reference compound]				EC50 ([1]; EC50 (nM) 5-HT2A BRET Gq, Table 6, commercial ligands): 2400 nM; efficacy at 5-HT2A [6]: ~100 % of that of serotonin; relative potency at 5-HT1A and 5-HT2A ([6]; BRET, FIG. 33A): more potent at 5-HT2A; Efficacy as %5HT 5-HT2A BRET Gq ([6]; Table 6, commercial ligands): 92.6 %5HT; EC50 ([5]; EC50 (nM) 5-HT1A BRET Gi1, Table 6, commercial ligands): 19600 nM; Efficacy as %5HT 5-HT1A BRET Gi1 [5]: 42.0 %5HT
c1ccc2c(N3CCNCC3)cccc2c1 [N-(1-naphthyl)piperazine, N-(1-Napthyl)piperazine, reference compound]				EC50 [4, 8]: 50.3 nM; Efficacy as %5HT 5-HT1A cAMP ([4]; Table 6, commercial ligands): 137.0 %5HT
O=C1[C@@H]2[C@H]3CC[C@H](C3)[C@@H]2C(=O)N1CCCCN1CCN(c2ncccn2)CC1 [Tandospirone, reference compound]				EC50 [4, 8]: 1.51 nM; Efficacy as %5HT 5-HT1A cAMP ([4]; Table 6, commercial ligands): 96.3 %5HT
N#Cc1ccc2[nH]cc(CCCCN3CCN(c4ccc5oc(C(N)=O)cc5c4)CC3)c2c1 [Vilazodone, vilazodone, reference compound]				Efficacy as %5HT 5-HT1A cAMP ([4]; Table 6, commercial ligands): 110.5 %5HT; activity at concentrations as low as ([5]; 5-HT1A Gi1 BRET): 30 pM; Emax ([5]; HEK-293T, read-out: Emax, 5-HT1A-mediated activation of Gi1 (BRET)): 97.4%; Efficacy as %5HT 5-HT1A BRET Gi1 [5]: 97.4 %5HT
CN(C)CCc1c[nH]c2cccc(O)c12 [psilocin, Psilocin]				efficacy at 5-HT2A [6]: ~50 % of that of serotonin
